Measurements from the supplement of paper PMC10477900.
Counter-ions that a name gives are not always drawn.

Key:
HCT116 [1] = conditions: 72 h
Description: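 HCT116 control and MTA1-KO (CRISPR) HCT116 cells were seeded in 384-well plates (800 cells/well), treated 16 h later with 237 metabolism-related anticancer drugs at five doses (10 uM, 2 uM, 400 nM, 80 nM, 16 nM) for 72 h, two replicates; viability by CCK8. Values are % inhibition of viability relative to untreated cells, plus fitted IC50.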

HCT116 [2] = assay: viability inhibition vs untreated; higher = more cytotoxic; conditions: 72 h

Row | Structure (SMILES) | IC50 (HCT116 [1]; genotype: MTA1-KO) | IC50 (HCT116 [1]; genotype: control) | viability inhibition (HCT116 [2]; genotype: MTA1-KO, 16 nM) | viability inhibition (HCT116 [2]; genotype: MTA1-KO, 80 nM) | viability inhibition (HCT116 [2]; genotype: MTA1-KO, 400 nM) | viability inhibition (HCT116 [2]; genotype: MTA1-KO, 2000 nM) | viability inhibition (HCT116 [2]; genotype: MTA1-KO, 10000 nM) | viability inhibition (HCT116 [2]; genotype: control, 16 nM) | viability inhibition (HCT116 [2]; genotype: control, 80 nM) | viability inhibition (HCT116 [2]; genotype: control, 400 nM) | viability inhibition (HCT116 [2]; genotype: control, 2000 nM) | viability inhibition (HCT116 [2]; genotype: control, 10000 nM)
1 | CC(=O)OC(C)(C)/C=C/C(=O)[C@](C)(O)[C@H]1[C@H](O)C[C@@]2(C)[C@@H]3CC=C4[C@@H](C[C@H](O)C(=O)C4(C)C)[C@]3(C)C(=O)C[C@]12C [Cucurbitacin B] | 0.34 µM | 4.56 µM | -3.8% | -16.3% | 58.7% | 66.6% | 79.9% | -19.7% | -9.21% | 33.3% | 49.7% | 58.9%
2 | O=C(Nc1cccc(Nc2ncc(Br)c(NCCc3cnc[nH]3)n2)c1)N1CCCC1 [BX912] | 1.27 µM | 1.5 µM | -9.54% | 7.13% | 22.8% | 64.5% | 92.4% | -0.895% | -7.72% | 13.9% | 47.2% | 75.2%
3 | CC(C)c1ccc(C(=O)N=C(N)N)cc1S(C)(=O)=O [Cariporide] | > 10 µM | > 10 µM | -28.1% | -33.2% | -32% | -35.2% | -20.9% | 19.4% | -4.81% | -9.25% | -4.56% | 22.7%
4 | Nc1ccc(/C=C/C(=O)NCc2cc3cc(-c4ccc(C(=O)N5CCC(F)(F)CC5)cc4)cc(-c4ccc(F)cc4)c3o2)cn1 [KPT9274] | > 10 µM | > 10 µM | -17.2% | -10% | -24% | -17.1% | 8.44% | 15.8% | -9.31% | 7.28% | 14.9% | 13.4%
5 | CN1CCN(C(=O)/C=C/c2ccc([N+](=O)[O-])o2)CC1 | > 10 µM | > 10 µM | -10.2% | -18.9% | -24% | -18.6% | 19.7% | 0.552% | -3.92% | -15.2% | -0.064% | 11%
6 | NS(=O)(=O)Cc1noc2ccccc12 [Zonisamide] | > 10 µM | > 10 µM | 2.91% | -1.38% | -4.06% | -5.28% | -6.62% | -7.18% | -18.6% | 2.58% | 2.07% | 31.7%
7 | NS(=O)(=O)c1ccccc1 [Benzenesulfonamide] | 9.29 µM | 8.77 µM | 3.96% | -4.26% | 4.06% | 12.2% | 54.7% | 7.65% | 12.9% | 10.8% | 25.5% | 55.6%
8 | CC(C)c1nc(N(C)S(C)(=O)=O)nc(-c2ccc(F)cc2)c1/C=C/[C@@H](O)C[C@@H](O)CC(=O)O [Rosuvastatin] | > 10 µM | > 10 µM | -4.22% | -8.46% | -10.3% | -11.2% | -10.9% | -1.14% | -8.14% | 4.9% | -10.3% | 31.2%
9 | CC(=O)c1ccc2c(c1)c1cc(C(C)=O)ccc1n2CCNC(C)C [CBL0137 hydrochloride] | 0.379 µM | 0.355 µM | -9.26% | -16.6% | 65.6% | 114% | 109% | 7.74% | -9.1% | 81.5% | 108% | 103%
10 | NCC(=O)Nc1ccc(-n2nc(C(F)(F)F)cc2-c2ccc3c(ccc4ccccc43)c2)cc1 | 2.57 µM | 1.5 µM | -0.655% | 3.58% | 10.6% | 45.3% | 77% | 8.04% | 10.5% | 9.27% | 67% | 74.1%
11 | Cc1cc(C2CCCCC2)n(O)c(=O)c1 [Ciclopirox ethanolamine] | 7.38 µM | 1.88 µM | -18% | -22.5% | -14.4% | -5.78% | 54.5% | -10.2% | 5.38% | 5.2% | 46.4% | 91.6%
12 | Oc1cccc(-c2nc(N3CCOCC3)c3oc4ncccc4c3n2)c1 [PI103] | 1.82 µM | 5.97 µM | 7.63% | -22.6% | -6.55% | 42.3% | 80.5% | -15.1% | -2.17% | -8.02% | -2.63% | 80.1%
13 | O=C(NCCCNc1nc(Nc2cccc(NC(=O)N3CCCC3)c2)ncc1I)c1cccs1 [BX795] | > 10 µM | > 10 µM | -13.8% | -8.82% | -26.4% | -9.81% | -6.85% | -1.4% | -15% | -1.64% | 18.7% | 7.91%
14 | CC(C)(C#N)c1ccc(N2C(=O)OCc3cnc4ccc(-c5cnc6ccccc6c5)cc4c32)cc1 | > 10 µM | > 10 µM | -21.1% | -19.6% | -26.7% | -3.23% | 30.7% | 8.09% | -11.9% | -11.4% | -0.304% | 45.6%
15 | CC(C)n1nc(-c2ccc3oc(N)nc3c2)c2c(N)ncnc21 [INK 128] | 1.04 µM | < 0.016 µM | -1.98% | 6.98% | 33.7% | 44.4% | 70% | 52.9% | 40.8% | 50.1% | 52.3% | 76.6%
16 | COCC1(CO)C(=O)C2CCN1CC2 (stereo not drawn) [PRIMA-1Met] | > 10 µM | > 10 µM | 7.04% | 1.21% | 20.1% | -5.66% | 5.13% | 13.6% | 13% | 5.28% | 1.17% | 30.6%
17 | O=c1oc2ccccc2c(O)c1Cc1c(O)c2ccccc2oc1=O [Dicumarol] | 0.444 µM | 0.54 µM | 4.75% | 8.83% | 21.4% | 67.8% | 64.3% | 10.4% | 23.6% | 22.5% | 66.6% | 65.9%
18 | CC1=C(CSC(=S)N2CCCCC2)C(=O)c2ccccc2C1=O [PKM2 inhibitor] | 0.861 µM | > 10 µM | -2.72% | -15.5% | -11% | 79.7% | 65.9% | -0.424% | -10.4% | -5.1% | 5.17% | 33.3%
19 | C#CCC(Cc1cnc2nc(N)nc(N)c2n1)c1ccc(C(=O)N[C@@H](CCC(=O)O)C(=O)O)cc1 (stereo partly drawn) [Pralatrexate] | 0.022 µM | < 0.016 µM | 37.5% | 71.4% | 71.7% | 75% | 77.3% | 52.4% | 77.9% | 78.8% | 80.6% | 79.1%
